The values below come from EP0459561B1, “Dioxo-tetrahydroquinoline derivatives” (MERCK SHARP & DOHME LTD., priority 1990, dated 1991).

Bounds are passed on as bounds.

This test deals with AMPA receptors. As to the kind of experiment: Displacement of 3H-AMPA binding, rat forebrain membranes. As to conditions: read-out: IC₅₀ (displacement of ³H-AMPA binding). How it is done: The ability of test compounds to displace ³H-AMPA binding to rat forebrain membranes was determined by the method of Honore et al., Neurosci. Lett., 1985, 54, 27.

As to `CCOC(=O)C1C(=O)Nc2cc([N+](=O)[O-])c([N+](=O)[O-])cc2C1=O` (stereo not shown) [Example 50, Ethyl 6,7-Dinitro-2,4-dioxo-3-(1,2,3,4-tetrahydroquinoline)carboxylate], the IC50 was less than 50 µM.
